Laboratory results as given in ChEMBL document CHEMBL4312043, “Discovery of Novel Neuraminidase Inhibitors by Structure-Based Virtual Screening, Structural Optimization, and Bioassay” (ACS Med Chem Lett, 2019).

Tests used:
[1] = Inhibition of clostridium neuraminidase using fluorescent substrate preincubated for 2 mins followed by substrate addition and measured after 30 mins by fluorescence based microplate reader analysis
[2] = target: Neuraminidase (Influenza A virus (A/Puerto Rico/8/1934(H1N1)), UniProt P03468); test: Inhibition of Influenza A virus H1N1 neuraminidase using MU-NANA as substrate preincubated for 10 mins followed by substrate addition and measured after 15 mins by fluorescence based assay
Chain of Neuraminidase (Influenza A virus (A/Puerto Rico/8/1934(H1N1)), UniProt P03468) (P03468 whole entry): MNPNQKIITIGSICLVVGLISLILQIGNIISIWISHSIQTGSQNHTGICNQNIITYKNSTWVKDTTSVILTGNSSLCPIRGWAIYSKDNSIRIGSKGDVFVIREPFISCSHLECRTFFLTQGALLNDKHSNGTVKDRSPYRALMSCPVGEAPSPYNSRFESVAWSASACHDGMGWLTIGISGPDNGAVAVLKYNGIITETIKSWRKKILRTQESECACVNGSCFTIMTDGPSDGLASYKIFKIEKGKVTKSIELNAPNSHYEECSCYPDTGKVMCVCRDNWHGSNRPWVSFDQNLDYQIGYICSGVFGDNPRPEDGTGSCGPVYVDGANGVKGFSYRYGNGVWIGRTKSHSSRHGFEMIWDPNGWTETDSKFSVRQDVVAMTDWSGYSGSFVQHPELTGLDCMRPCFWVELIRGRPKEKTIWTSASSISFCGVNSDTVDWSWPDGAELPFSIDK

Row | Compound | IC50 [1] | IC50 [2]
1 | O=C(N/N=C/c1ccc(O)c([N+](=O)[O-])c1)c1cc(O)c(O)c(O)c1 | 9.67 µM | 
2 | O=C(N/N=C/c1ccc(O)c([N+](=O)[O-])c1)c1cc(O)cc(O)c1 | 0.21 µM | 
3 | O=C(N/N=C/c1cc(Cl)ccc1[N+](=O)[O-])c1cc(O)cc(O)c1 | 3.71 µM | 
4 | COc1cc(/C=N/NC(=O)c2cc(O)cc(O)c2)cc(OC)c1O | 14.8 µM | 
5 | O=C(N/N=C/c1ccc(F)c([N+](=O)[O-])c1)c1cc(O)c(O)c(O)c1 | 22.7 µM | 
6 | O=C(N/N=C/c1cc([N+](=O)[O-])ccc1O)c1cc(O)cc(O)c1 | 1.92 µM | 
7 | CCC(CC)O[C@@H]1C=C(C(=O)O)C[C@H](N)[C@H]1NC(C)=O [OSELTAMIVIR CARBOXYLATE] | 3.04 µM | 
8 | COc1cc(/C=N/NC(=O)c2cc(O)cc(O)c2)ccc1O | 11.6 µM | 
9 | O=C(N/N=C/c1cc([N+](=O)[O-])ccc1F)c1cc(O)cc(O)c1 | 3.97 µM | 
10 | COc1cc(/C=N\NC(=O)c2ccc(Cn3cc(Br)c([N+](=O)[O-])n3)o2)cc(OC)c1O | 12.9 µM | 
11 | COc1ccc(Br)cc1C(=O)N/N=C/c1ccc(Oc2ccc([N+](=O)[O-])cc2C#N)cc1 | 7.71 µM | 
12 | O=C(N/N=C/c1cc([N+](=O)[O-])ccc1F)c1cc(O)c(O)c(O)c1 | 36.6 µM | 
13 | O=C(N/N=C/c1ccc(F)c([N+](=O)[O-])c1)c1cc(O)cc(O)c1 | 5.47 µM | 
14 | CCOC(=O)c1ccc(N/N=C/c2cc(Br)cc([N+](=O)[O-])c2O)cc1 | 16 µM | 
15 | O=C(N/N=C/c1cc(Cl)ccc1[N+](=O)[O-])c1cc(O)c(O)c(O)c1 | 10.6 µM | 
16 | CC1=NN(c2cccc(C(=O)O)c2)C(=O)/C1=C\c1ccc(-c2cc(Cl)ccc2C(=O)O)o1 |  | 37 µM
17 | CC(=O)Nc1ccc(/C=N/NC(=O)c2cc(O)cc(O)c2)cc1 | 13.8 µM | 
18 | O=C(N/N=C/c1ccc(OS(=O)(=O)c2ccccc2)cc1)c1cccc([N+](=O)[O-])c1 | 8.44 µM | 
